Data published in US10434076B2, “Use of 2,5-dihydroxybenzene derivatives for treating dermatitis” (AmDerma Pharmaceuticals, LLC, priority 2006, dated 2019).
“Also recorded” adds a separate entry of the source.

Tests used:
[1] = target: Fibroblast Growth Factor-1 (FGF-1) (Homo sapiens, UniProt P05230); test: Structural interaction with FGF-1 (diffraction of complex crystals); assay type: binding; settings: electron density
Protocol: As of the diffraction from complex crystals of FGF-1: 2-acetoxy-5-hydroxybenzenesulfonic acid, FGF-1; 5-acetoxy-2-hydroxybenzenesulfonic acid and FGF-1: 2,5-diacetoxybenzenesulfonic acid, the complex structures were calculated and represented. In FIGS. 10, 11 and 12, representing the surface of the protein coloured according to its electrostatic potential (light grey: negative charge, dark grey: positive charge, white: areas with no charge), the interaction form of the 2-acetoxy-5-hydroxybenzenesulfonic acid, 5-acetoxy-2-hydroxybenzenesulfonic acid and 2,5-diacetoxybenzenesulfonic acid, respectively, with the FGF-1 may be observed.

[2] = tested on: dermatitis induced by benzalkonium chloride on the ear of the rat; test: Benzalkonium chloride induced dermatitis on rat ears, erythema and histological study; assay type: in vivo
Protocol: Using the same model, dermatitis was induced on both ears of two rats, following the same process described above. In this case, 30 minutes after the application of benzalkonium chloride, a rat was treated in both ears with a glycerol solution (FIG. 3A), while the other one was treated in both ears with a glycerol solution containing 2.5% (w/v) of 2,5-diacetoxybenzenesulfonate (DABS) (FIG. 3B).

[3] = tested on: myeloperoxidase (MPO) activity; test: Myeloperoxidase (MPO) activity in the ear after benzalkonium chloride induced dermatitis; assay type: in vivo, rat; settings: for increase in MPO activity in the ear caused by dermatitis: 24 hours after induction
Protocol: In this same model (Hyun E et al. Br J Pharmacol, 2004), dermatitis induction has been associated to an increase in the myeloperoxidase (MPO) activity in the ear, as a marker of leukocyte infiltration in the tissue affected with dermatitis. Based on these evidences, the effect of hydroxybenzene derivatives (i the activity of the MPO in the model described in this example was established. The MPO activity was determined in the ears of control rats (without dermatitis) and in ears on which dermatitis had been induced with benzalkonium chloride and had been treated with vehicle (anhydrous glycerol), 5% DHBS cream or DABS 2.5% solution in glycerol. The ears were frozen in liquid nitrogen 24 hours after the induction of dermatitis and were kept at −80° C. until determination of MPO activity. To determine the MPO activity, the frozen ears were homogenized in phosphate buffer with 0.5% of hexadecyltrimethylammonium bromide. After several freezing/thawing/sonication cycles, the samples were centrifuged at 13,000×g during 20 minutes at 4° C. H2O2 and O-dianisidine were added into the supernatants and the absorbance was measured at 460 nm in a spectrophotometer 1 hour after incubation at room temperature. The MPO activity is expressed as absorbance units per mg of tissue.

[4] = tested on: dermatitis induced by the application of benzalkonium chloride on the rat ears; test: Benzalkonium chloride induced dermatitis on rat ears, Evans blue dye extravasation; assay type: in vivo; settings: for percentage of the area stained in blue compared to the total area of the ear (dermatitis extent): treated vs untreated ear
Protocol: Dermatitis was induced by the application of benzalkonium chloride, 5% solution (w/v) (1:5 olive oil:acetone) on the entire extent of the back part of the car ([…]) in anesthetized rats. Dermatitis was induced in both ears. In the assay of 2,5-dihydroxybenzenesulfonate (DHBS), a cream containing 5% of DHBS (w/w) was applied topically only on the back part of the right ear, 30 minutes after the application of benzalkonium chloride. Fifteen minutes later, 0.5% by weight of Evans blue dye solution (400 μL per animal) was injected into the jugular vein. […] Therefore, it can be stated that topical application of 5% DHBS reduced the dermatitis extent.
This observation was confirmed upon quantification of dermatitis extent based on the area of the ear stained in blue with respect to the total area of the ear. Identically obtained photographs of the extended ears were processed in order to determine the stained area and the total area of the ear using a computer program to analyze images (Motic Image). The stained area of each ear was related to the total area to obtain the percentage of the ear affected by the dermatitis. […] 24 hours after dermatitis induction (FIG. 2B), these values were very similar.
Using the same procedure as in the former example, dermatitis was induced by the application of benzalkonium chloride, 5% solution (w/v) (1:5 olive oil:acetone) on the entire extent of the back part of the ear (40 μL/ear) in anesthetized rats. Dermatitis was induced in both ears. A cream containing 5% (w/v) of either 2-acetoxy-5-hydroxybenzenesulfonate (2A-5HBS) or 5-acetoxy-2-hydroxybenzenesulfonate (5A-2HBS) was applied topically only on the back part of the right ear, 30 minutes after the application of benzalkonium chloride. Fifteen minutes later, 0.5% (w/v) of Evans blue dye solution (400 μL per animal) was injected into the jugular vein. […] Therefore, it can be stated that topical application of 5% 2A-5HBS and 5% 5A-2HBS reduced the dermatitis extent.
This observation was confirmed upon quantification of dermatitis extent based on the area of the ear stained in blue with respect to the total area of the ear. Identically obtained photographs of the extended ears were processed in order to determine the stained area and the total area of the ear using a computer program to analyze images (Motic Image). The stained area of each car was related to the total area to obtain the percentage of the ear affected by the dermatitis.

[5] = topical 2.5% DABS in glycerol vs vehicle, tissues fixed 24 hours after induction
[6] = topical 5% (w/v) monoester on right ear vs untreated left ear, 24 hours after induction
[7] = topical 5% monoester solution, 24 hours after induction

Sequence of Fibroblast Growth Factor-1 (FGF-1) (P05230 whole entry, species assumed): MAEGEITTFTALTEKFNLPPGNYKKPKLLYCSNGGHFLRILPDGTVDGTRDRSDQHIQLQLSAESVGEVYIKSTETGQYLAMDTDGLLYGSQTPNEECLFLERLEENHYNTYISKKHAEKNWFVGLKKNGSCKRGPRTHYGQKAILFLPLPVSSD

CC(=O)Oc1ccc(OC(C)=O)c(S(=O)(=O)O)c1 [DABS, 2,5-diacetoxybenzenesulfonic acid]
acetoxyl groups kept when bound to FGF-1 [1]: keep the acetoxyl groups in positions 2, 5 and, 2 and 5, respectively
location of the compound bound to FGF-1 [1]: located at a site very close to the site that, as described, is occupied by the 2,5-dihydroxybenzenesulfonic acid
erythema caused by the dermatitis ([2]; topical 2.5% (w/v) DABS in glycerol vs glycerol vehicle): reduced benzalkonium chloride induced dermatitis; also recorded: milder
granulocytes adhered to the capillary endothelial cells (histological study) [2, 5]: significant reduction; also recorded: not observed
leukocyte infiltration (histological study) [2, 5]: reduces the edema and the leukocyte infiltration; also recorded: noticeably milder
tissular edema (histological study) [2, 5]: reduces the edema; also recorded: not observed
efficacy on MPO activity relative to 5% DHBS ([3]; 2.5% DABS (half the amount of active principle) compared with 5% DHBS): slightly higher
increase in MPO activity in the ear caused by dermatitis ([3]; topical 2.5% DABS solution in glycerol vs vehicle): significantly reduces

O=S(=O)(O)c1cc(O)ccc1O [DHBS, 2,5-dihydroxybenzenesulfonic acid, reference compound]
blue stain extent (Evans blue dye extravasation), photographs ([4]; topical cream 5% DHBS on right ear vs untreated left ear, 4 hours after dermatitis induction): clearly smaller blue stain; also recorded: remarkably reduced dye extravasation
percentage of the area stained in blue compared to the total area of the ear (dermatitis extent) ([4]; topical cream 5% DHBS, 4 hours after induction): significantly reduced the percentage of the area stained in blue; also recorded: significantly reduced dermatitis extent
increase in MPO activity in the ear caused by dermatitis ([3]; topical 5% DHBS cream vs vehicle): significantly reduced

CC(=O)Oc1ccc(O)c(S(=O)(=O)O)c1 [5A-2HBS, 5-acetoxy-2-hydroxybenzenesulfonic acid]
acetoxyl groups kept when bound to FGF-1 [1]: keep the acetoxyl groups in positions 2, 5 and, 2 and 5, respectively
location of the compound bound to FGF-1 [1]: located at a site very close to the site that, as described, is occupied by the 2,5-dihydroxybenzenesulfonic acid
blue stain extent (Evans blue dye extravasation), photographs [4, 6]: notably reduced; also recorded: remarkably reduced dye extravasation
percentage of the area stained in blue compared to the total area of the ear (dermatitis extent) [4, 7]: significantly reduced the percentage of the area stained in blue

CC(=O)Oc1ccc(O)cc1S(=O)(=O)O [2A-5HBS, 2-acetoxy-5-hydroxybenzenesulfonic acid]
acetoxyl groups kept when bound to FGF-1 [1]: keep the acetoxyl groups in positions 2, 5 and, 2 and 5, respectively
location of the compound bound to FGF-1 [1]: located at a site very close to the site that, as described, is occupied by the 2,5-dihydroxybenzenesulfonic acid
blue stain extent (Evans blue dye extravasation), photographs [4, 6]: clearly smaller blue stain; also recorded: remarkably reduced dye extravasation
percentage of the area stained in blue compared to the total area of the ear (dermatitis extent) [4, 7]: significantly reduced the percentage of the area stained in blue; also recorded: significantly reduced dermatitis extent
